Reference: patent US9487515B2, “Compounds modulating c-fms and/or c-kit activity and uses therefor” (Plexxikon Inc., priority 2006, dated 2016)
pIC50: −log10 of the molar value.

Molecular target: c-kit (Homo sapiens, UniProt P10721)
Test: c-kit assays of Examples 40 and 41 (AlphaScreen kinase assays at 10 and 100 μM ATP, 33P-ATP filter assay, M-07e SCF-stimulated proliferation and phosphorylation)

Sequence of c-kit (P10721 with tags, fused parts or gaps): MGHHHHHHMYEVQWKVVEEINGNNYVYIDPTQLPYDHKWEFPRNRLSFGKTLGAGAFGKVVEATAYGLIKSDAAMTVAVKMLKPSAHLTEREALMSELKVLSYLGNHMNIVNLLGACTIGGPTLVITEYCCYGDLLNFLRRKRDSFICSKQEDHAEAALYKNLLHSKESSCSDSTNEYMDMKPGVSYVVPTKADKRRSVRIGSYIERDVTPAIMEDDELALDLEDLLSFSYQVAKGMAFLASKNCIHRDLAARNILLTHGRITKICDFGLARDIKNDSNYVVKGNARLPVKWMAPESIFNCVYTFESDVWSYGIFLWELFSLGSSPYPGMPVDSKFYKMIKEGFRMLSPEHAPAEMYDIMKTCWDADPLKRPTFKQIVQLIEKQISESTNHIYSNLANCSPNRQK

SMILES	pIC50
O=C(Nc1ccc(Cc2c[nH]c3ncccc23)cn1)c1ccc(F)c(C(F)(F)F)c1 [P-0112, 4-Fluoro-N-[5-(1H-pyrrolo[2,3-b]pyridin-3-ylmethyl)-pyridin-2-yl]-3-trifluoromethyl-benzamide]	> 6.00
Clc1ccc(CNc2ncc(Cc3c[nH]c4ncc(Cl)cc34)cn2)cc1 [P-0260, (4-Chloro-benzyl)-[5-(5-chloro-1H-pyrrolo[2,3-b]pyridin-3-ylmethyl)-pyrimidin-2-yl]-amine]	> 6.00
FC(F)(F)c1ccccc1CNc1ncc(Cc2c[nH]c3ncccc23)cn1 [P-0302, [5-(1H-Pyrrolo[2,3-b]pyridin-3-ylmethyl)-pyrimidin-2-yl]-(2-trifluoromethyl-benzyl)-amine]	> 6.00
CCc1nc(C)c(CNc2nc(Cl)c(Cc3c[nH]c4ncc(Cl)cc34)s2)[nH]1 [P-0197, [4-Chloro-5-(5-chloro-1H-pyrrolo[2,3-b]pyridin-3-ylmethyl)-thiazol-2-yl]-(2-ethyl-5-methyl-3H-imidazol-4-ylmethyl)-amine]	> 6.00
Fc1ccc(Cl)c(CNc2ncc(Cc3c[nH]c4ncccc34)cn2)c1 [P-0407, (2-Chloro-5-fluoro-benzyl)-[5-(1H-pyrrolo[2,3-b]pyridin-3-ylmethyl)-pyrimidin-2-yl]-amine]	> 6.00
Fc1cccc(F)c1CNc1ccc(Cc2c[nH]c3ncc(Cl)cc23)cn1 [P-0278, [5-(5-Chloro-1H-pyrrolo[2,3-b]pyridin-3-ylmethyl)-pyridin-2-yl]-(2,6-difluoro-benzyl)-amine]	> 6.00
Fc1cccc(Cl)c1CNc1nc(Cl)c(Cc2c[nH]c3ncc(Cl)cc23)s1 [P-0243, [4-Chloro-5-(5-chloro-1H-pyrrolo[2,3-b]pyridin-3-ylmethyl)-thiazol-2-yl]-(2-chloro-6-fluoro-benzyl)-amine]	> 6.00
c1cnc2[nH]cc(Cc3ccc(NCCN4CCOCC4)nc3)c2c1 [P-0099, (2-Morpholin-4-yl-ethyl)-[5-(1H-pyrrolo[2,3-b]pyridin-3-ylmethyl)-pyridin-2-yl]-amine]	> 6.00
Fc1ccc(CNc2ncc(Cc3c[nH]c4ncccc34)cn2)c(Cl)c1 [P-0316, (2-Chloro-4-fluoro-benzyl)-[5-(1H-pyrrolo[2,3-b]pyridin-3-ylmethyl)-pyrimidin-2-yl]-amine]	> 6.00
Clc1cccc(CNc2ccc(Cc3c[nH]c4ncccc34)cn2)c1Cl [P-0351, (2,3-Dichloro-benzyl)-[5-(1H-pyrrolo[2,3-b]pyridin-3-ylmethyl)-pyridin-2-yl]-amine]	> 6.00
Cc1cnc2[nH]cc(Cc3ccc(NCc4cc(F)ccc4F)nc3)c2c1 [P-0297, (2,5-Difluoro-benzyl)-[5-(5-methyl-1H-pyrrolo[2,3-b]pyridin-3-ylmethyl)-pyridin-2-yl]-amine]	> 6.00
Clc1cnc2[nH]cc(Cc3ccc(NCc4ccccc4Cl)nc3)c2c1 [P-0280, (2-Chloro-benzyl)-[5-(5-chloro-1H-pyrrolo[2,3-b]pyridin-3-ylmethyl)-pyridin-2-yl]-amine]	> 6.00
Cc1cc(CNc2nc(Cl)c(Cc3c[nH]c4ncccc34)s2)sc1C [P-0208, [4-Chloro-5-(1H-pyrrolo[2,3-b]pyridin-3-ylmethyl)-thiazol-2-yl]-(4,5-dimethyl-thiophen-2-ylmethyl)-amine]	> 6.00
CC(Nc1ccc(Cc2c[nH]c3ncccc23)cn1)c1ccc(S(C)(=O)=O)cc1 (centres unmarked) [P-0097, [1-(4-Methanesulfonyl-phenyl)-ethyl]-[5-(1H-pyrrolo[2,3-b]pyridin-3-ylmethyl)-pyridin-2-yl]-amine]	> 6.00
Fc1cccc(CNc2ccc(Cc3c[nH]c4ncccc34)cn2)c1F [P-0362, (2,3-Difluoro-benzyl)-[5-(1H-pyrrolo[2,3-b]pyridin-3-ylmethyl)-pyridin-2-yl]-amine]	> 6.00
COc1cnc2[nH]cc(Cc3ccc(NCc4ccc(C(F)(F)F)nc4)nc3F)c2c1 [P-0187, [6-Fluoro-5-(5-methoxy-1H-pyrrolo[2,3-b]pyridin-3-ylmethyl)-pyridin-2-yl]-(6-trifluoromethyl-pyridin-3-ylmethyl)-amine]	> 6.00
Fc1cccc(F)c1CNc1ccc(Cc2c[nH]c3ncccc23)cn1 [P-0340, (2,6-Difluoro-benzyl)-[5-(1H-pyrrolo[2,3-b]pyridin-3-ylmethyl)-pyridin-2-yl]-amine]	> 6.00
Cc1cnc2[nH]cc(Cc3ccc(NCc4ccccc4F)nc3)c2c1 [P-0272, (2-Fluoro-benzyl)-[5-(5-methyl-1H-pyrrolo[2,3-b]pyridin-3-ylmethyl)-pyridin-2-yl]-amine]	> 6.00
Clc1cnc2[nH]cc(Cc3sc(NCc4c(Cl)cncc4Cl)nc3Cl)c2c1 [P-0253, [4-Chloro-5-(5-chloro-1H-pyrrolo[2,3-b]pyridin-3-ylmethyl)-thiazol-2-yl]-(3,5-dichloro-pyridin-4-ylmethyl)-amine]	> 6.00
O=C(Nc1ccc(Cc2c[nH]c3ncccc23)cn1)c1cccc(OC(F)(F)F)c1 [P-0113, N-[5-(1H-Pyrrolo[2,3-b]pyridin-3-ylmethyl)-pyridin-2-yl]-3-trifluoromethoxy-benzamide]	> 6.00
O=C(c1ccc(Nc2cccc(O)c2)nc1)c1c[nH]c2ncccc12 [P-0027, [6-(3-Hydroxy-phenylamino)-pyridin-3-yl]-(1H-pyrrolo[2,3-b]pyridin-3-yl)-methanone]	> 6.00

SMILES	pIC50
Fc1ccc(CNc2ncc(Cc3c[nH]c4ncc(Cl)cc34)s2)cc1 [P-0290, [5-(5-Chloro-1H-pyrrolo[2,3-b]pyridin-3-ylmethyl)-thiazol-2-yl]-(4-fluoro-benzyl)-amine]	> 6.00
Fc1cc(Cl)cc(CNc2ccc(Cc3c[nH]c4ncccc34)cn2)c1 [P-0373, (3-Chloro-5-fluoro-benzyl)-[5-(1H-pyrrolo[2,3-b]pyridin-3-ylmethyl)-pyridin-2-yl]-amine]	> 6.00
Fc1ccc(CNc2ncc(Cc3c[nH]c4ncc(Cl)cc34)cn2)c(Cl)c1 [P-0396, (2-Chloro-4-fluoro-benzyl)-[5-(5-chloro-1H-pyrrolo[2,3-b]pyridin-3-ylmethyl)-pyrimidin-2-yl]-amine]	> 6.00
COCCNc1ccc(Cc2c[nH]c3ncccc23)cn1 [P-0098, (2-Methoxy-ethyl)-[5-(1H-pyrrolo[2,3-b]pyridin-3-ylmethyl)-pyridin-2-yl]-amine]	> 6.00
Cc1cnc2[nH]cc(Cc3ccc(NCc4ccccc4Cl)nc3)c2c1 [P-0279, (2-Chloro-benzyl)-[5-(5-methyl-1H-pyrrolo[2,3-b]pyridin-3-ylmethyl)-pyridin-2-yl]-amine]	> 6.00
N#Cc1cnc2[nH]cc(Cc3ccc(NCc4ccccc4OC(F)F)nc3)c2c1 [P-0339, 3-[6-(2-Difluoromethoxy-benzylamino)-pyridin-3-ylmethyl]-1H-pyrrolo[2,3-b]pyridine-5-carbonitrile]	> 6.00
FC(F)(F)c1cccc(CNc2ncc(Cc3c[nH]c4ncc(Cl)cc34)cn2)c1 [P-0268, [5-(5-Chloro-1H-pyrrolo[2,3-b]pyridin-3-ylmethyl)-pyrimidin-2-yl]-(3-trifluoromethyl-benzyl)-amine]	> 6.00
N#Cc1cnc2[nH]cc(Cc3ccc(NCc4ccccc4F)nc3)c2c1 [P-0271, 3-[6-(2-Fluoro-benzylamino)-pyridin-3-ylmethyl]-1H-pyrrolo[2,3-b]pyridine-5-carbonitrile]	> 6.00
Fc1ccccc1CNc1nc(Cl)c(Cc2c[nH]c3ncc(Cl)cc23)s1 [P-0246, [4-Chloro-5-(5-chloro-1H-pyrrolo[2,3-b]pyridin-3-ylmethyl)-thiazol-2-yl]-(2-fluoro-benzyl)-amine]	> 6.00
Fc1ccc(CNc2nc(Cl)c(Cc3c[nH]c4ncc(Cl)cc34)s2)c(F)c1 [P-0245, [4-Chloro-5-(5-chloro-1H-pyrrolo[2,3-b]pyridin-3-ylmethyl)-thiazol-2-yl]-(2,4-difluoro-benzyl)-amine]	> 6.00
COc1cnc2[nH]cc(Cc3ccc(NCc4ccccc4C(F)(F)F)nc3)c2c1 [P-0326, [5-(5-Methoxy-1H-pyrrolo[2,3-b]pyridin-3-ylmethyl)-pyridin-2-yl]-(2-trifluoromethyl-benzyl)-amine]	> 6.00
Clc1ccccc1CNc1ccc(Cc2c[nH]c3ncccc23)cn1 [P-0216, (2-Chloro-benzyl)-[5-(1H-pyrrolo[2,3-b]pyridin-3-ylmethyl)-pyridin-2-yl]-amine]	> 6.00
O=C(Nc1ccc(Cc2c[nH]c3ncccc23)cn1)c1ccc(F)cc1Cl [P-0101, 2-Chloro-4-fluoro-N-[5-(1H-pyrrolo[2,3-b]pyridin-3-ylmethyl)-pyridin-2-yl]-benzamide]	> 6.00
Fc1ccc(CNc2ncc(Cc3c[nH]c4ncc(Cl)cc34)cn2)c(F)c1 [P-0265, [5-(5-Chloro-1H-pyrrolo[2,3-b]pyridin-3-ylmethyl)-pyrimidin-2-yl]-(2,4-difluoro-benzyl)-amine]	> 6.00
c1cnc(N2CCOCC2)c(CNc2ccc(Cc3c[nH]c4ncccc34)cn2)c1 [P-0347, (2-Morpholin-4-yl-pyridin-3-ylmethyl)-[5-(1H-pyrrolo[2,3-b]pyridin-3-ylmethyl)-pyridin-2-yl]-amine]	> 6.00
COc1ccc(CNc2ccc(Cc3c[nH]c4ncccc34)cn2)cn1 [P-0219, (6-Methoxy-pyridin-3-ylmethyl)-[5-(1H-pyrrolo[2,3-b]pyridin-3-ylmethyl)-pyridin-2-yl]-amine]	> 6.00
O=C(Nc1ccc(Cc2c[nH]c3ncccc23)cn1)c1ccnc(Cl)c1 [P-0123, 2-Chloro-N-[5-(1H-pyrrolo[2,3-b]pyridin-3-ylmethyl)-pyridin-2-yl]-isonicotinamide]	> 6.00
N#Cc1cnc2[nH]cc(Cc3ccc(NCc4ccccc4C(F)(F)F)nc3)c2c1 [P-0274, 3-[6-(2-Trifluoromethyl-benzylamino)-pyridin-3-ylmethyl]-1H-pyrrolo[2,3-b]pyridine-5-carbonitrile]	> 6.00
Cc1cnc2[nH]cc(Cc3ccc(NCc4ccccc4C(F)(F)F)nc3)c2c1 [P-0276, [5-(5-Methyl-1H-pyrrolo[2,3-b]pyridin-3-ylmethyl)-pyridin-2-yl]-(2-trifluoromethyl-benzyl)-amine]	> 6.00
Fc1cnc2[nH]cc(Cc3ccc(NCc4ccccc4Cl)nc3)c2c1 [P-0327, (2-Chloro-benzyl)-[5-(5-fluoro-1H-pyrrolo[2,3-b]pyridin-3-ylmethyl)-pyridin-2-yl]-amine]	> 6.00
